# Measured values reported in PubChem BioAssay (NCI).
#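 The compound was tested at five concentrations on cells cultured in 96-well plates, with a 48-hour exposure period. Here, GI50 denotes the concentration required for 50% inhibition of growth. TGI: total growth inhibition.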
# Columns and labels:
# Test in all cases: inhibition of tumour cell growth, NCI panel, 48 h
# [1] = test system: 786-0 renal
# [2] = test system: A549 NSCLC
# [3] = test system: ACHN renal
# [4] = test system: BT-549 breast
# [5] = test system: CAKI-1 renal
# [6] = test system: CCRF-CEM leukemia
# [7] = test system: COLO 205 colon
# [8] = test system: DU-145 prostate
# [9] = test system: EKVX NSCLC
# [10] = test system: HCC-2998 colon
# [11] = test system: HCT-116 colon
# [12] = test system: HCT-15 colon
# [13] = test system: HL-60(TB) leukemia
# [14] = test system: HOP-62 NSCLC
# [15] = test system: HOP-92 NSCLC
# [16] = test system: HT29 colon
# [17] = test system: IGROV1 ovarian
# [18] = test system: K-562 leukemia
# [19] = test system: KM12 colon
# [20] = test system: LOX IMVI melanoma
# [21] = test system: M14 melanoma
# [22] = test system: MALME-3M melanoma
# [23] = test system: MCF7 breast
# [24] = test system: MDA-MB-231 breast
# [25] = test system: MDA-MB-435
# [26] = test system: MOLT-4 leukemia
# [27] = test system: NCI-H226 lung
# [28] = test system: NCI-H23 lung
# [29] = test system: NCI-H460 lung
# [30] = test system: NCI-H522 lung
# [31] = test system: NCI/ADR-RES ovarian
# [32] = test system: OVCAR-4 ovarian
# [33] = test system: OVCAR-5 ovarian
# [34] = test system: OVCAR-8 ovarian
# [35] = test system: PC-3 prostate
# [36] = test system: RPMI-8226 leukemia
# [37] = test system: SF-268 CNS
# [38] = test system: SF-295 CNS
# [39] = test system: SF-539 CNS
# [40] = test system: SK-MEL-2 melanoma
# [41] = test system: SK-MEL-5 melanoma
# [42] = test system: SN12C renal
# [43] = test system: SNB-19 CNS
# [44] = test system: SNB-75 CNS
# [45] = test system: SR leukemia
# [46] = test system: SW-620 colon
# [47] = test system: TK-10 renal
# [48] = test system: U251 CNS
# [49] = test system: UACC-257 melanoma
# [50] = test system: HS 578T breast
# [51] = test system: OVCAR-3 ovarian
# [52] = test system: RXF 393 renal
# [53] = test system: SK-MEL-28 melanoma
smiles,measurement,setting,value
O=c1[nH]nc(Nc2ccc(Cl)cc2)c2nnn(-c3ccc([N+](=O)[O-])cc3)c12,TGI,[1],35.5 µM
same,TGI,[2],29.1 µM
same,TGI,[3],> 100 µM
same,TGI,[4],> 100 µM
same,TGI,[5],> 100 µM
same,TGI,[6],61.7 µM
same,TGI,[7],49.7 µM
same,TGI,[8],48.6 µM
same,TGI,[9],> 100 µM
same,TGI,[10],64.7 µM
same,TGI,[11],42.4 µM
same,TGI,[12],> 100 µM
same,TGI,[13],> 100 µM
same,TGI,[14],> 100 µM
same,TGI,[15],46.9 µM
same,TGI,[16],> 100 µM
same,TGI,[17],> 100 µM
same,TGI,[18],29.9 µM
same,TGI,[19],> 100 µM
same,TGI,[20],53.1 µM
same,TGI,[21],> 100 µM
same,TGI,[22],> 100 µM
same,TGI,[23],47.4 µM
same,TGI,[24],> 100 µM
same,TGI,[25],> 100 µM
same,TGI,[26],45.2 µM
same,TGI,[27],> 100 µM
same,TGI,[28],24.9 µM
same,TGI,[29],> 100 µM
same,TGI,[30],18 µM
same,TGI,[31],> 100 µM
same,TGI,[32],> 100 µM
same,TGI,[33],> 100 µM
same,TGI,[34],48 µM
same,TGI,[35],68.8 µM
same,TGI,[36],> 100 µM
same,TGI,[37],> 100 µM
same,TGI,[38],> 100 µM
same,TGI,[39],39.6 µM
same,TGI,[40],82.2 µM
same,TGI,[41],22.7 µM
same,TGI,[42],> 100 µM
same,TGI,[43],> 100 µM
same,TGI,[44],> 100 µM
same,TGI,[45],> 100 µM
same,TGI,[46],> 100 µM
same,TGI,[47],46.7 µM
same,TGI,[48],46 µM
same,TGI,[49],> 100 µM
C=CN(C(=O)N1CCN(c2cc3c(cc2F)c(=O)c(C(=O)O)cn3C2CC2)CC1)c1nc(-c2ccc(C)cc2)cs1,GI50,[1],0.333 µM
same,TGI,[1],10.5 µM
same,GI50,[2],3.17 µM
same,TGI,[2],> 100 µM
same,GI50,[3],3.38 µM
same,TGI,[3],> 100 µM
same,GI50,[4],0.306 µM
same,TGI,[4],2.11 µM
same,GI50,[6],0.438 µM
same,TGI,[6],> 100 µM
same,GI50,[7],2.09 µM
same,TGI,[7],4.72 µM
same,GI50,[8],3.8 µM
same,TGI,[8],> 100 µM
same,GI50,[9],3.61 µM
same,TGI,[9],> 100 µM
same,GI50,[10],3.85 µM
same,TGI,[10],> 100 µM
same,GI50,[11],0.319 µM
same,TGI,[11],> 100 µM
same,GI50,[12],2.96 µM
same,TGI,[12],> 100 µM
same,GI50,[14],3.49 µM
same,TGI,[14],> 100 µM
same,GI50,[15],1.13 µM
same,TGI,[15],4.39 µM
same,GI50,[50],3.45 µM
same,TGI,[50],21.3 µM
same,GI50,[16],3.31 µM
same,TGI,[16],> 100 µM
same,GI50,[17],3.42 µM
same,TGI,[17],> 100 µM
same,GI50,[18],1.96 µM
same,TGI,[18],> 100 µM
same,GI50,[19],3.45 µM
same,TGI,[19],> 100 µM
same,GI50,[22],3.35 µM
same,TGI,[22],> 100 µM
same,GI50,[23],2.88 µM
same,TGI,[23],11.5 µM
same,GI50,[24],2.99 µM
same,TGI,[24],> 100 µM
same,GI50,[27],2.91 µM
same,TGI,[27],> 100 µM
same,GI50,[28],3.12 µM
same,TGI,[28],16.1 µM
same,GI50,[29],3.38 µM
same,TGI,[29],> 100 µM
same,GI50,[30],2.27 µM
same,TGI,[30],6.23 µM
same,GI50,[31],2.67 µM
same,TGI,[31],7.24 µM
same,GI50,[51],3.83 µM
same,TGI,[51],> 100 µM
same,GI50,[32],3.56 µM
same,TGI,[32],> 100 µM
same,GI50,[33],4.14 µM
same,TGI,[33],> 100 µM
same,GI50,[34],3.33 µM
same,TGI,[34],19.9 µM
same,GI50,[35],0.376 µM
same,TGI,[35],6.52 µM
same,GI50,[36],0.53 µM
same,TGI,[36],> 100 µM
same,GI50,[52],4 µM
same,TGI,[52],> 100 µM
same,GI50,[37],4.02 µM
same,TGI,[37],> 100 µM
same,GI50,[38],2.59 µM
same,TGI,[38],7.11 µM
same,GI50,[53],4.49 µM
same,TGI,[53],> 100 µM
same,GI50,[42],3.46 µM
same,TGI,[42],> 100 µM
same,GI50,[43],4.16 µM
same,TGI,[43],> 100 µM
same,GI50,[44],2.13 µM
same,TGI,[44],6.59 µM
same,GI50,[45],2.15 µM
same,TGI,[45],> 100 µM
same,GI50,[46],4.5 µM
same,TGI,[46],> 100 µM
same,GI50,[47],3.89 µM
same,TGI,[47],> 100 µM
same,GI50,[48],3.39 µM
same,TGI,[48],11.6 µM
same,GI50,[49],2.81 µM
same,TGI,[49],7.44 µM
